The IC50 is the concentration that inhibits the measured activity by half.

The text below walks through data of patent US20210038607A1, “OXADIAZOLYLTHIOPHENE DERIVATIVES USEFUL AS HISTONE DEACETYLASE INHIBITORS” (Karus Therapeutics Limited, priority 2018, published 2021).

One assay addresses T1, Human HDAC9 (Homo sapiens, UniProt Q9UKV0).
T1 construct: amino acids 604-1066 with C-terminal His tag; His (C); host or cells: baculovirus expression system
Description: HDAC9 biochemical assay, class IIa-specific substrate. Particulars: read-out: HDAC Isoform IC50 (nM) 9. The procedure, abridged:
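HDAC9 residues 604-1066 (C-terminal His tag, baculovirus-expressed) at 0.06 ng/ul with 50 μM class IIa substrate Boc-Lys(trifluoroacetyl)-AMC in Tris-HCl pH 8.0 buffer with BSA and 1% DMSO. 30 min at room temperature, then developer added; fluorescence read at 360/460 nm Ex/Em.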

The target of assay [1] is T2, Complex of human HDAC3 and human NCOR2 (Homo sapiens, UniProt O15379).
T2 construct: full length with C-terminal His tag, MW=49.7 kDa; His (C); host or cells: baculovirus expression system (co-expressed)
T2 sequence (O15379 whole entry): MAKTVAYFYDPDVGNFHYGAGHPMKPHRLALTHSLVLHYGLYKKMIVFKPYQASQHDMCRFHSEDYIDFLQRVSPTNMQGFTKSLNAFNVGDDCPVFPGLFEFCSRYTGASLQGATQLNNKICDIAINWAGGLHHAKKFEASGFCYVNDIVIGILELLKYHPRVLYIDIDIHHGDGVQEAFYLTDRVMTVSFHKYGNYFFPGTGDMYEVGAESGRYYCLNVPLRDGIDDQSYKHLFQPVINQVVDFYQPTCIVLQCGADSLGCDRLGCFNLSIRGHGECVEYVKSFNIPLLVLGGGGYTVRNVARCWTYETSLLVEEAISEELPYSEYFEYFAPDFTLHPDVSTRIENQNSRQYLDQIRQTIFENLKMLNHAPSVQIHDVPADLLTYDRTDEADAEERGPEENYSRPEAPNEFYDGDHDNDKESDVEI
T2 sequence (Q9Y618 395-489 partner limits assumed): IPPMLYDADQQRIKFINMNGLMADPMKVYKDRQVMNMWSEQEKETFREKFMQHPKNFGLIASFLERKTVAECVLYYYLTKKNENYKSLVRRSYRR
The assay can be described thus: HDAC3 biochemical assay, AMC-labeled peptide substrate. Particulars: read-out: HDAC Isoform IC50 (nM) 3. The procedure, abridged: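 Two-stage fluorogenic read: compounds incubated 1 h at 30° C with 50 μM RHKK(Ac)AMC and 0.1 ng/ul HDAC3–NCOR2(395-489) complex (Tris pH8.0, NaCl, KCl, MgCl2, BSA, 1% DMSO). Developer digestion of deacetylated product gives signal at Ex 360/Em 460.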

The next assay has as its target T3, Human HDAC8 (Homo sapiens, UniProt Q9BY41).
T3 construct: full length with C-terminal His tag, MW=42.6 kDa; His (C); host or cells: baculovirus expression system
T3 sequence (Q9BY41 1-377): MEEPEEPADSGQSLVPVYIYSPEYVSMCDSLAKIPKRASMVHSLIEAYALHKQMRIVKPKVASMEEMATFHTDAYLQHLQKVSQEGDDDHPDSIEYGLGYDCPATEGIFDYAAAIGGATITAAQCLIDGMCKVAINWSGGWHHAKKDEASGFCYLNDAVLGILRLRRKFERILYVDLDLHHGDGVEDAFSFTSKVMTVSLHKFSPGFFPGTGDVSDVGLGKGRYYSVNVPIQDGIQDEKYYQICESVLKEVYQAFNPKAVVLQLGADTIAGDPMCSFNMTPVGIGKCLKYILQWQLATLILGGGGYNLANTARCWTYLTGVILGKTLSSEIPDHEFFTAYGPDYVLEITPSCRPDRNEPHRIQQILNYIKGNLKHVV
The assay can be described thus: HDAC8 biochemical assay, AMC-labeled peptide substrate. Particulars: read-out: HDAC Isoform IC50 (nM) 8. The procedure, abridged:
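Two-step fluorogenic readout: compounds and enzyme deacetylate 100 µM RHK(Ac)K(Ac)AMC for 2 h at 30° C (pH8.0 Tris buffer, BSA, 1% DMSO final), then developer releases AMC, read at 360/460 Ex/Em. Enzyme: 1 ng/ul full-length His-tagged human HDAC8 from baculovirus.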

The target in another assay is T4, Human HDAC7 (Homo sapiens, UniProt Q8WUI4).
T4 construct: (a.a. 518-end) with N-terminal GST tag; GST (N); host or cells: baculovirus expression system
T4 sequence (Q8WUI4 518-952 limits assumed): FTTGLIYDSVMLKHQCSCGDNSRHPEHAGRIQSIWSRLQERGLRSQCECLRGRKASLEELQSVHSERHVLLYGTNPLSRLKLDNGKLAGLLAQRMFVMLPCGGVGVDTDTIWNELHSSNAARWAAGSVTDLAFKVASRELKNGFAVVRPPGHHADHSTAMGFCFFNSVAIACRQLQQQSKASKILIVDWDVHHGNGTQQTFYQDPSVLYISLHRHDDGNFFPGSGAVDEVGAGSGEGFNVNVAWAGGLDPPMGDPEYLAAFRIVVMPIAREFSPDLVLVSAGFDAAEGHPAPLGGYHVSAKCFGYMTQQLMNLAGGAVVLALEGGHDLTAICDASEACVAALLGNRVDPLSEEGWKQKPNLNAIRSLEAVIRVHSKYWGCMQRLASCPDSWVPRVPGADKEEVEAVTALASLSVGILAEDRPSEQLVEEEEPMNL
Description: HDAC7 biochemical assay, class IIa-specific substrate. Particulars: read-out: HDAC Isoform IC50 (nM) 7. The procedure, abridged: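 Two-step fluorogenic readout: class IIa-selective trifluoroacetyl-lysine AMC substrate (50 μM) deacetylated by N-terminal GST-HDAC7 fragment (0.001 ng/ul), then digested by developer, Ex/Em 360/460. Reaction: 30 min, room temperature, Tris-HCl pH 8.0, NaCl/KCl/MgCl2, 1 mg/mL BSA, 1% DMSO.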

T1 sequence (Q9UKV0 604-1066 isoform Q9UKV0-5): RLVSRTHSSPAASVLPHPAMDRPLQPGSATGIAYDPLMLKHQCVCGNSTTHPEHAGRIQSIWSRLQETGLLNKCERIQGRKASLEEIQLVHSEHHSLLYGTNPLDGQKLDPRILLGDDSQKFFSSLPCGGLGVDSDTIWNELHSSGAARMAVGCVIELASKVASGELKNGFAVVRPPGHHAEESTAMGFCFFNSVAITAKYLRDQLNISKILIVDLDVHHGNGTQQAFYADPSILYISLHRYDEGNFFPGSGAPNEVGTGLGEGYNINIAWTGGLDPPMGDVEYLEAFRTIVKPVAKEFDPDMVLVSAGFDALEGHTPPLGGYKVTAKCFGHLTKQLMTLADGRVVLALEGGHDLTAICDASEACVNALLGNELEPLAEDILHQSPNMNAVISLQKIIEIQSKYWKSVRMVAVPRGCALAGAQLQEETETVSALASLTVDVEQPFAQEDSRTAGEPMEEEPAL

`O=C(c1cnnc(N(Cc2ccc(-c3noc(C(F)(F)F)n3)s2)c2cnccn2)c1)N1CC(C(F)F)C1` [Example GK, 5-[3-(Difluoromethyl)azetidine-1-carbonyl]-N-(pyrazin-2-yl)-N-({5-[5-(trifluoromethyl)-1,2,4-oxadiazol-3-yl]thiophen-2-yl}methyl)pyridazin-3-amine]: the IC50 at Human HDAC9 is no more than 10000 nM; in assay [1] it was no more than 10000 nM; on Human HDAC8 it was no more than 10000 nM; at Human HDAC7 it was no more than 500 nM.
Turning to `OC1(c2cnnc(N(Cc3ccc(-c4noc(C(F)(F)F)n4)s3)c3cnccn3)c2)COC1` [Example GW, 3-{6-[(Pyrazin-2-yl)({5-[5-(trifluoromethyl)-1,2,4-oxadiazol-3-yl]thiophen-2-yl}methyl)amino]pyridazin-4-yl}oxetan-3-ol], the half-inhibitory concentration (IC50) was no more than 10000 nM at Human HDAC9, greater than 10000 nM in assay [1], no more than 10000 nM at Human HDAC8 and no more than 1000 nM at Human HDAC7.
Turning to `NC(=O)c1ccc(N(Cc2ccc(-c3noc(C(F)(F)F)n3)s2)c2cnccn2)nn1` [Example DQ, 6-[(Pyrazin-2-yl)({5-[5-(trifluoromethyl)-1,2,4-oxadiazol-3-yl]thiophen-2-yl}methyl)amino]pyridazine-3-carboxamide], the IC50 at Human HDAC9 is no more than 1000 nM; in assay [1], no more than 10000 nM; on Human HDAC8, no more than 10000 nM; at Human HDAC7, no more than 500 nM.
For `CN(C(=O)c1cnnc(N(Cc2ccc(-c3noc(C(F)(F)F)n3)s2)c2cnccn2)c1)S(C)(=O)=O` [Example GE, N-Methanesulfonyl-N-methyl-6-[(pyrazin-2-yl)({5-[5-(trifluoromethyl)-1,2,4-oxadiazol-3-yl]thiophen-2-yl}methyl)amino]pyridazine-4-carboxamide], the IC50 was no more than 10000 nM at Human HDAC9, greater than 10000 nM in assay [1], no more than 10000 nM on Human HDAC8 and no more than 1000 nM at Human HDAC7.
Take `O=C(c1cncc(N(Cc2ccc(-c3noc(C(F)(F)F)n3)s2)c2cnccn2)c1)N1CCOCC1` [Example GR, N-[5-(Morpholine-4-carbonyl)pyridin-3-yl]-N-({5-[5-(trifluoromethyl)-1,2,4-oxadiazol-3-yl]thiophen-2-yl}methyl)pyrazin-2-amine]: the half-maximal inhibitory concentration (IC50) at Human HDAC9 was no more than 10000 nM; in assay [1] it was greater than 10000 nM; at Human HDAC8, no more than 10000 nM; on Human HDAC7, no more than 500 nM.
Turning to `FC(F)(F)c1nc(-c2ccc(CN(c3cnccn3)c3cc(N4CCCC4)cnn3)s2)no1` [Example FQ, N-(Pyrazin-2-yl)-5-(pyrrolidin-1-yl)-N-({5-[5-(trifluoromethyl)-1,2,4-oxadiazol-3-yl]thiophen-2-yl}methyl)pyridazin-3-amine], the IC50 on Human HDAC9 was no more than 10000 nM; in assay [1], greater than 10000 nM; on Human HDAC8 it was no more than 10000 nM; at Human HDAC7 it was no more than 10000 nM.
Turning to `O=C(c1cnnc(N(Cc2ccc(-c3noc(C(F)(F)F)n3)s2)c2cnccn2)c1)N1CC(C(F)(F)F)C1` [Example GJ, N-(Pyrazin-2-yl)-N-({5-[5-(trifluoromethyl)-1,2,4-oxadiazol-3-yl]thiophen-2-yl}methyl)-5-[3-(trifluoromethyl)azetidine-1-carbonyl]pyridazin-3-amine], the concentration for half-maximal inhibition (IC50) on Human HDAC9 is no more than 10000 nM; in assay [1], no more than 10000 nM; at Human HDAC8, no more than 10000 nM; at Human HDAC7 it was no more than 1000 nM.
Consider `O=C(c1ccc(N(Cc2ccc(-c3noc(C(F)(F)F)n3)s2)c2cnccn2)nn1)N1CCCCC1` [Example FG, 6-(Piperidine-1-carbonyl)-N-(pyrazin-2-yl)-N-({5-[5-(trifluoromethyl)-1,2,4-oxadiazol-3-yl]thiophen-2-yl}methyl)pyridazin-3-amine], for which the IC50 at Human HDAC9 was no more than 1000 nM; in assay [1], greater than 10000 nM; at Human HDAC8 it was no more than 10000 nM; on Human HDAC7, no more than 500 nM.
Turning to `FC(F)c1cnnc(N(Cc2ccc(-c3noc(C(F)(F)F)n3)s2)c2cnccn2)c1` [Example GV, 5-(Difluoromethyl)-N-(pyrazin-2-yl)-N-({5-[5-(trifluoromethyl)-1,2,4-oxadiazol-3-yl]thiophen-2-yl}methyl)pyridazin-3-amine], the IC50 at Human HDAC9 was no more than 10000 nM; in assay [1], greater than 10000 nM; at Human HDAC8 it was no more than 10000 nM; at Human HDAC7 it was no more than 1000 nM.
Take `FC(F)(F)c1nc(-c2ccc(CN(c3cnccn3)c3cc(-c4ccccn4)cnn3)s2)no1` [Example GM, N-(Pyrazin-2-yl)-5-(pyridin-2-yl)-N-({5-[5-(trifluoromethyl)-1,2,4-oxadiazol-3-yl]thiophen-2-yl}methyl)pyridazin-3-amine]: the IC50 on Human HDAC9 is no more than 10000 nM; in assay [1], greater than 10000 nM; on Human HDAC8, no more than 10000 nM; on Human HDAC7 it was no more than 500 nM.
Take `Cc1nccnc1N(Cc1ccc(-c2noc(C(F)(F)F)n2)s1)c1cnccn1` [Example BE, 3-Methyl-N-(pyrazin-2-yl)-N-({5-[5-(trifluoromethyl)-1,2,4-oxadiazol-3-yl]thiophen-2-yl}methyl)pyrazin-2-amine]: the IC50 at Human HDAC9 is no more than 1000 nM; in assay [1] it was greater than 10000 nM; at Human HDAC8, no more than 10000 nM; at Human HDAC7 it was no more than 500 nM.
The matching figures for `CC(C)OC1CN(C(=O)c2cnnc(N(Cc3ccc(-c4noc(C(F)(F)F)n4)s3)c3cnccn3)c2)C1` [Example GC, 5-[3-(Propan-2-yloxy)azetidine-1-carbonyl]-N-(pyrazin-2-yl)-N-({5-[5-(trifluoromethyl)-1,2,4-oxadiazol-3-yl]thiophen-2-yl}methyl)pyridazin-3-amine]: no more than 10000 nM, greater than 10000 nM, no more than 10000 nM and no more than 500 nM.
Turning to `O=C(c1ccc(N(Cc2ccc(-c3noc(C(F)(F)F)n3)s2)c2cnccn2)nn1)N1CCCC1` [Example FI, N-(Pyrazin-2-yl)-6-(pyrrolidine-1-carbonyl)-N-({5-[5-(trifluoromethyl)-1,2,4-oxadiazol-3-yl]thiophen-2-yl}methyl)pyridazin-3-amine], the IC50 is no more than 1000 nM at Human HDAC9, no more than 10000 nM in assay [1], no more than 1000 nM on Human HDAC8 and no more than 500 nM at Human HDAC7.
As for `O=C(c1ccc(N(Cc2ccc(-c3noc(C(F)(F)F)n3)s2)c2cnccn2)nn1)N1C[C@@H]2C[C@H]1CO2` [Example FE, 6-[(1S,4S)-2-Oxa-5-azabicyclo[2.2.1]heptane-5-carbonyl]-N-(pyrazin-2-yl)-N-({5-[5-(trifluoromethyl)-1,2,4-oxadiazol-3-yl]thiophen-2-yl}methyl)pyridazin-3-amine], the IC50 was no more than 10000 nM on Human HDAC9, no more than 10000 nM in assay [1], no more than 10000 nM at Human HDAC8 and no more than 500 nM at Human HDAC7.
Take `NC(=O)c1nccnc1N(Cc1ccc(-c2noc(C(F)(F)F)n2)s1)c1cnccn1` [Example GO, 3-[(Pyrazin-2-yl)({5-[5-(trifluoromethyl)-1,2,4-oxadiazol-3-yl]thiophen-2-yl}methyl)amino]pyrazine-2-carboxamide]: the IC50 on Human HDAC9 was no more than 10000 nM; in assay [1], greater than 10000 nM; at Human HDAC8, no more than 10000 nM; at Human HDAC7, no more than 10000 nM.
